Measurements from patent US9439854B2, “Liquid pharmaceutical formulations of palonosetron” (Helsinn Healthcare SA, priority 2003, dated 2016).
Each block holds one molecule with its values, some of them ahead of it.

Legend:
[1] = physical and chemical stability of palonosetron HCl admixed with dexamethasone; format: physicochemical; details: palonosetron HCl 5 or 25 μg/mL with dexamethasone 0.2, 0.4 or 0.33 mg/mL in 5% dextrose or 0.9% sodium chloride; 14 days at 4° C., 48 hours at 23° C.
Procedure: The physical and chemical stability of palonosetron HCl 0.25 mg admixed with dexamethasone (as sodium phosphate) 10 mg or 20 mg in 5% dextrose injection or 0.9% sodium chloride injection in polyvinyl chloride (PVC) minibags, and also admixed with dexamethasone (as sodium phosphate) 3.3 mg in 5% dextrose injection or 0.9% sodium chloride injection in polypropylene syringes at 4° C. in the dark for 14 days and at 23° C. exposed to normal laboratory fluorescent light over 48 hours, was studied. Test samples of palonosetron HCl 5 μg/mL with dexamethasone (as sodium phosphate) 0.2 mg/mL and also 0.4 mg/mL were prepared in polyvinyl chloride (PVC) minibags of each infusion solution. Additionally, palonosetron HCl 25 μg/mL with dexamethasone (as sodium phosphate) 0.33 mg/mL in each infusion solution were prepared as 10 mL of test solution in 20-mL polypropylene syringes. […] Physical stability was assessed using visual observation in normal room light and using a high-intensity monodirectional light beam. In addition, turbidity and particle content were measured electronically. Chemical stability of the drug was evaluated by using a stability-indicating high performance liquid chromatographic (HPLC) analytical technique.

[2] = formulation optimization study (concentration ranges, 24 lots); format: physicochemical; details: 0.05 mg/mL to 5.0 mg/mL; citrate buffer 0 to 80 mM; EDTA 0 to 0.10%
Procedure: A formulation optimization study was performed using an experimental design software. Twenty-four lots of drug product were analyzed to investigate the appropriate concentration ranges for palonosetron hydrochloride (0.05 mg/mL to 5.0 mg/mL), citrate buffer (0 to 80 mM) and EDTA (0 to 0.10%).

[3] = physical and chemical stability of palonosetron HCl in infusion solutions (without dexamethasone); format: physicochemical; details: 5 and 30 μg/mL in 4 infusion solutions, PVC bags; 14 days at 4° C. in the dark, 48 hours at 23° C. under fluorescent light
Procedure: The physical and chemical stability of palonosetron HCl was studies in concentrations of 5 μg/mL and 30 μg/mL in 5% dextrose injection, 0.9% sodium chloride injection, 5% dextrose in 0.45% sodium chloride injection, and dextrose 5% in lactated Ringer's injection. The admixtures were evaluated over 14 days at 4° C. in the dark and for 48 hours at 23° C. under fluorescent light. Test samples of palonosetron HCl were prepared in polyvinyl chloride (PVC) bags of the infusion solutions at concentrations of 5 and 30 μg/mL. Evaluations for physical and chemical stability were performed on samples taken initially and after 1, 3, 5, 7, and 14 days of storage at 4° C. and after 1, 4, 24, and 48 hours at 23° C. Physical stability was assessed using visual observation in normal room light and using a high-intensity monodirectional light beam. In addition, turbidity and particle content were measured electronically. Chemical stability of the drug was evaluated by using a stability-indicating high performance liquid chromatographic (HPLC) analytical technique.

[4] = effect of pH on stability of formulations containing palonosetron hydrochloride at 80° C.; format: physicochemical; details: pH 2.0, 5.0, 7.4 and 10.0 tested
Procedure: A study was conducted to determine the effect of pH on formulations containing palonosetron hydrochloride, measuring the stability at 80° C. at pH 2.0, 5.0, 7.4, and 10.0.

5-HT3 receptor = target: T1, 5-HT3 receptor (Homo sapiens, UniProt P46098); details: clinical investigations; cited from earlier work
T1 sequence (P46098 24-478): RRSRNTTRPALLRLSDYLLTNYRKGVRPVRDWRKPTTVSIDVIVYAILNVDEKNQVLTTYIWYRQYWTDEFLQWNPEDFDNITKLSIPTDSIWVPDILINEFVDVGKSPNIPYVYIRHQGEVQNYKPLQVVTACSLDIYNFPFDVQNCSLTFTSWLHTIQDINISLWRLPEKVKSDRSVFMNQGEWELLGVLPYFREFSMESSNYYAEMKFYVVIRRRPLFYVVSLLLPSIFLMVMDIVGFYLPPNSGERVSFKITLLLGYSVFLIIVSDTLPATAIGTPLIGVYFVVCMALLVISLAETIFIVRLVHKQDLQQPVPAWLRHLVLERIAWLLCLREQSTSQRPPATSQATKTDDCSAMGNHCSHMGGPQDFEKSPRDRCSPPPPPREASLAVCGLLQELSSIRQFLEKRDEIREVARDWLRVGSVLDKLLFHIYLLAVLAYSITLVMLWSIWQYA

[5] = clinical investigations; cited from earlier work

chemical stability (loss of drug, HPLC) [1]: little or no loss
Compound: C[C@@H]1C[C@H]2[C@@H]3CCC4=CC(=O)C=C[C@]4(C)[C@@]3(F)[C@@H](O)C[C@]2(C)[C@@]1(O)C(=O)CO [dexamethasone]

chemical stability (loss of drug, HPLC) [3]: little or no loss
physical stability (visual, turbidity, particle content) [3]: physically stable throughout the study
pH of greatest stability [4]: most stable at pH 5.0
Compound: Cl.O=C1c2cccc3c2[C@H](CCC3)CN1[C@@H]1CN2CCC1CC2 [palonosetron hydrochloride]
chemical stability as a function of palonosetron concentration [2]: greatest stability seen at the lowest palonosetron concentrations
physical compatibility (visual, turbidity, particle content) [1]: physically compatible throughout the study

Compound: O=C1c2cccc3c2[C@H](CCC3)CN1[C@@H]1CN2CCC1CC2 [palonosetron, (3aS)-2,3,3a,4,5,6-Hexahydro-2-[(S)-1-Azabicyclo[2.2.2]oct-3-yl]2,3,3a,4,5,6-hexahydro-1-oxo-1Hbenz[de]isoquinoline]
potency relative to most existing 5-HT3 receptor antagonists (5-HT3 receptor): an order of magnitude more potent than most existing 5-HT3 receptor antagonists
reduction of delayed-onset nausea induced by chemotherapeutic agents (5-HT3 receptor): effective to reduce delayed-onset nausea
half-life [5]: about 40 hours
